Legend:
Assay type in all cases: in vitro ADME
[1] = Transdermal delivery of opipramol through full thickness pig skin ex vivo
Description: FIG. 7 depicts the effect of organic acids on the transdermal delivery of opipramol through full thickness pig skin. Formulations containing opipramol, various organic acids (succinic acid, citric acid, lactic acid, ascorbic acid, malic acid, or tartaric acid), octanol, lauroglycol, and/or Klucel® are prepared. Samples are collected from the receive cell at 22 and 46 hours after application of the formulations to the skin. The amount of opipramol compounds in the receiver cell fluid is determined using a spectrophotometer and/or UV-HPLC at 280 nm. FIG. 8 depicts the effects of octanol, limonene and/or lauroglycol on the transdermal delivery of opipramol (5% by weight) through full thickness pig skin.

[2] = as above; remark: listed apart in the source
[3] = Transdermal delivery of carbidopa through full thickness pig skin ex vivo, Franz Cell delivery system; conditions: for Transdermal delivery of Carbidopa through full thickness pig skin, ex vivo: 24 h, 8.85% carbidopa-arginine salt
Description: The effects of octanol, limonene and/or lauroglycol on the transdermal delivery of carbidopa through full thickness pig skin are evaluated using the Franz Cell delivery system. Formulations containing carbidopa, octanol, limonene, and/or lauroglycol are prepared (formulations 1-8). Samples are collected from the receive cell at 24 and 41 hours after application of the formulation to the skin. The amount of carbidopa compounds in the receiver cell fluid is determined using a spectrophotometer and/or UV-HPLC at 280 nm. […] In Table 1 and FIG. 1, the formulations each contain 14.5% (by weight) carbidopa-arginine salt. In Table 2 the formulations each contain 8.85% (by weight) carbidopa-arginine salt.

[4] = inclusion of Klucel hydroxypropyl cellulose in formulation containing octanol and limonene (FIG. 4)

With OCCN1CCN(CCCN2c3ccccc3C=Cc3ccccc32)CC1 [opipramol] as the compound, how does the “Effect of addition of organic acids on transdermal delivery of opipramol” value ([1]; FIG. 7) read?
Its value is “significantly increases”.

And the “Effect of lactic acid and citric acid on opipramol penetration through the skin” value ([1]; FIG. 7)?
Its value is “minimal effect”.

And the “Effect of tartaric acid on opipramol delivery relative to other organic acids” value ([1]; FIG. 7, followed by ascorbic, succinic and malic acid)?
The value was “highest enhancing effect”.

And the “Effect of lauroglycol in the formulation on opipramol delivery” value ([1]; FIG. 8, Table 3)?
Its value is “reduces the additive and/or synergistic effect”.

What about the “Effect of the combination of octanol and limonene on delivery of opipramol through pig skin” value ([1]; FIG. 8, opipramol 5% by weight) of the same compound?
The value was “additive and/or synergistic effect”.

What about the “Effect of glutamic acid on opipramol penetration through the skin” value ([2]; FIG. 9) of the same compound?
The value was “significantly increases”.

What about the “Effect of increasing concentration of Klucel on penetration of opipramol through the skin” value ([2]; FIG. 10) of the same compound?
Its value is “reduces”.

What about the “Effect of tartaric acid on opipramol penetration through the skin as compared to opipramol base” value ([2]; FIG. 11) of the same compound?
The value was “significantly increases”.

What about the “Tartaric acid compared with hydrochloric acid, opipramol penetration” value ([2]; FIG. 11) of the same compound?
The value was “significantly superior”.

What about the “Opipramol delivery of formulation containing 2.5% (wt) opipramol” value ([2]; FIG. 12, compared with 1% formulation) of the same compound?
Its value is “delivers more opipramol than the 1% formulation”.

And the “Transdermal delivery of opipramol at 5% opipramol in the formulation” value ([2]; FIG. 12, higher concentration)?
Its value is “may be inhibited”.

What about the “Rate of opipramol penetration” value ([2]; glutamic acid formulation, in the presence of 1% limonene (FIG. 9)) of the same compound?
The value was “reduced”.

And the “Lag time of opipramol penetration through the skin” value ([2]; glutamic acid formulation, in the presence of 5% water (FIG. 9))?
Its value is “shortened”.

Which “Transdermal delivery of Carbidopa through full thickness pig skin, ex vivo” value (shortened to “Transdermal delivery … ex vivo”) ([3]; Octanol 0, Limonene 1.5, Oleic Acid 0) does the source give for C[C@@](Cc1ccc(O)c(O)c1)(NN)C(=O)O [Carbidopa, carbidopa] here?
Its value is 1.0 mg/cm^2.

What about the “Transdermal delivery … ex vivo” value ([3]; Octanol 0, Limonene 1.5, Oleic Acid 2) of the same compound?
Its value is 1.0 mg/cm^2.

What about the “Transdermal delivery … ex vivo” value ([3]; Octanol 4, Limonene 1.5, Oleic Acid 0) of the same compound?
Its value is 6.4 mg/cm^2.

What about the “Effect of the combination of octanol and lauroglycol on delivery of carbidopa through pig skin” value ([3]; FIG. 1, depends on the octanol:lauroglycol ratio) of the same compound?
The value was “enhances”.

What about the “Effect of the combination of octanol and limonene on delivery of carbidopa through pig skin” value ([3]; FIGS. 1 and 2, Tables 1 and 2) of the same compound?
Its value is “additive and/or synergistic effect”.

And the “Effect on lag time of carbidopa penetration through the skin” value ([3]; addition of lactic acid to formulation containing octanol and limonene (FIG. 3))?
Its value is “reduces”.

What about the “Effect on lag time of carbidopa penetration” value [3, 4] of the same compound?
The value was “increases”.

And the “Effect on rate of carbidopa penetration through the skin” value [3, 4]?
The value was “reduces”.

And the “Enhancement of penetration of the drug through the skin” value ([3]; on increasing the amount of carbidopa in the formulation by 50% (FIG. 5))?
The value was 25%.

From US9415108B2, “Compositions for transdermal delivery of active agents” (NeuroDerm, Ltd., priority 2010, dated 2016)
